A value given as a limit tells only on which side of the number the result lay.

The results in this text go back to patent US9994518B2, “Alpha-7 nicotinic acetylcholine receptor modulators and uses thereof” (MERCK SHARP & DOHME CORP., priority 2014, dated 2018).

Test system in one data set: not given
Assay: not given
Details: not given
On to `COc1ccc(Cl)cc1OC[C@@H]1[C@@H](c2ccc(S(N)(=O)=O)cc2)C1(C)C` (racemic) [Exp. 1, ±trans 4-{3-[(5-chloro-2-methoxyphenoxy)methyl]-2,2-dimethylcyclopropyl}benzenesulfonamide], for which the melting point (usually the temperature, or range, at which the solid turns liquid) was in the range of 158 to 160 °C.

`COc1ccc(Cl)cc1OC[C@@H]1[C@@H](c2ccc(S(N)(=O)=O)cc2)C12CCCC2` (racemic) [Exp. 2, ±trans 4-{2-[(5-chloro-2-methoxyphenoxy)methyl]spiro[2.4]hept-1-yl}benzenesulfonamide]: the melting point is 56 to 58 °C.

The next data set deals with T1, α7 nAChR (rat α7/CHO cells) (Rattus norvegicus, UniProt Q05941).
T1 construct: expressed in transfected cells; host or cells: CHO cells (α7/CHO)
T1 sequence (Q05941 23-502): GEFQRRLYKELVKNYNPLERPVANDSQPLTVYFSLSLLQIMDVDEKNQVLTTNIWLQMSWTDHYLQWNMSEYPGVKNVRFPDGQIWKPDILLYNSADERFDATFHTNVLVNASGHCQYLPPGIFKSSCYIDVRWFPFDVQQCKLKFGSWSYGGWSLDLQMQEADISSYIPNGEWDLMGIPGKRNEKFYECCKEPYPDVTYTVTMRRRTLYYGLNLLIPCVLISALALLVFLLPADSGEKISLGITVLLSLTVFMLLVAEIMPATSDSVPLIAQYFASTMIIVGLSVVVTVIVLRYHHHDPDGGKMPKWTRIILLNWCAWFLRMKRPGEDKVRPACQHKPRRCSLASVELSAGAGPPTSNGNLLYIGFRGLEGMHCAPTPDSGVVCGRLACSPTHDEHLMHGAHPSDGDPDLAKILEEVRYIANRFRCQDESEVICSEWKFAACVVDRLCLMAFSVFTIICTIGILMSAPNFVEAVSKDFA
The experiment in a line: Evaluation of modulators of α7 nAChRs using the IonFlux HT automated patch clamp system (potentiation of EC20 ACh-evoked currents). In kind it is cell-based. Particulars: percent potentiation of ACh (EC20, approx. 60 μM) response in α7/CHO cells; 6-point dose response 0.03-10 μM; whole cell patch clamp. The protocol: Evaluation of Modulators of α7 nAChRs Using the IonFlux^HT Automated Patch Clamp System
Acetylcholine was freshly prepared for each plate run and used at an EC20 concentration (approximately 60 μM for rat α7/CHO) to induce α7 nAChR currents on the IonFlux^HT. To prepare the ACh solution for a single plate, 6 μl of the 100 mM ACh stock was diluted into 10 ml of 0.3% DMSO/external solution
Test compounds were prepared for a 6-point dose response from 0.03-10 μM. Working stocks were prepared from serial dilutions of 10 mM DMSO stock solutions to give a final DMSO concentration of 0.3%. 80 μl of the final concentration of each compound was added to the appropriate wells in an IonFlux^HT assay plate.
2×T175 flasks of α7/CHO cells (˜60-70% confluent) were washed twice with PBS and trypsinized (2 ml) for 3.5 minutes at 37° C./5% CO2. Cells were collected in F-12K complete media, counted and the number required for the assay was calculated, for example, 2×10^6 cells in a final volume of 670 μl of external solution were required to load one zone (one quarter) of an IonFlux^HT assay plate. The correct number of cells was pelleted by centrifuge, the supernatant was discarded and the cell pellet was resuspend in external solution at the required concentration so that cells were added in a volume of 80 μl per well to the IonFlux^HT assay plate.
Calculation of the Effect of Compounds on ACh Mediated Currents in α7 nAChRs:
The effect of test compounds on EC20 ACh-evoked currents was calculated by the formula: […]
The rinse protocol was the initial step in preparation of the IonFlux^HT plate. 80 μl of MilliQ water was added to every well (except Out wells) and the IonFlux^HT assay plate was run through the water rinse protocol on the machine. At the end of the run, the water was discarded from the wells. This action was repeated twice.
Briefly, to prepare the plate for the assay aliquots of cells, compounds and internal and external solutions were added to wells of the prepared IonFlux^HT plate (80 μl/well) (solutions made to manufacturer's specifications). Automated whole cell patch-clamp recordings were made using the standard IonFlux^HT single application protocol. Vacuum was held at 6 psi/hg throughout the experiment and membrane potential was held at −80 mV for 35 sec and then at −60 mV during data acquisition. Two ACh (EC20) pulses were applied at the beginning of the assay, 90 seconds apart, to provide an ACh baseline response then cells were perfused with modulators for 89 sec before ACh (EC20) was applied for 1 s. The calculation of percent potentiation of the acetylcholine response for each well was performed by the data analysis software supplied with the IonFlux^HT.
The following compounds were tested in accordance with the above-procedure for activity and the EC50 values determined are reported: […]
Background: The patch-clamp technique gives a direct electrical read-out from membranes.
For the compound `COc1ccc(Cl)cc1OC[C@@H]1[C@@H](c2ccc(S(N)(=O)=O)cc2)C1(C)C` (racemic) [Exp. 1, ±trans 4-{3-[(5-chloro-2-methoxyphenoxy)methyl]-2,2-dimethylcyclopropyl}benzenesulfonamide], the concentration for a half-maximal effect (EC50) – broadly, the midpoint of the concentration-response curve – was 0.105 µM.

As for `COc1ccc(Cl)cc1OC[C@@H]1[C@@H](c2ccc(S(N)(=O)=O)cc2)C12CCCC2` (racemic) [Exp. 2, ±trans 4-{2-[(5-chloro-2-methoxyphenoxy)methyl]spiro[2.4]hept-1-yl}benzenesulfonamide], the concentration giving a half-maximal response (EC50) was 0.143 µM.

As for `CC1(C)[C@H](COc2ccc(F)cc2C#N)[C@H]1c1ccc(S(N)(=O)=O)cc1` (single isomer, unassigned) [Exp. 28], the EC50 was 3.1 µM.

Turning to `COc1cc(F)ccc1OC[C@@H]1[C@@H](c2ccc(S(N)(=O)=O)cc2)C1(C)C` (single isomer, unassigned) [Exp. 29], the EC50 was 1.24 µM.

In the case of `COc1cc(F)ccc1OC[C@H]1[C@H](c2ccc(S(N)(=O)=O)cc2)C1(C)C` (single isomer, unassigned) [Exp. 30], the 50% effective concentration (EC50) was 2.52 µM.

`Cc1cc(F)ccc1OC[C@H]1[C@H](c2ccc(S(N)(=O)=O)cc2)C1(C)C` (single isomer, unassigned) [Exp. 31]: the EC50 was 0.2 µM.

For the compound `CC1(C)[C@@H](COc2ccc(F)cc2C#N)[C@@H]1c1ccc(S(N)(=O)=O)cc1` (single isomer, unassigned) [Exp. 32], the half-maximal effective concentration (EC50) came out at 0.811 µM.

For the compound `Cc1ccc(OC[C@H]2[C@H](c3ccc(S(N)(=O)=O)cc3)C2(C)C)cn1` (single isomer, unassigned) [Exp. 33], the EC50 was found to be 0.546 µM.

Regarding `Cc1ncccc1OC[C@H]1[C@H](c2ccc(S(N)(=O)=O)cc2)C1(C)C` (single isomer, unassigned) [Exp. 34], the EC50 stood at 1.62 µM.

Turning to `Cc1cc(F)ccc1OC[C@@H]1[C@@H](c2ccc(S(N)(=O)=O)cc2)C1(C)C` (single isomer, unassigned) [Exp. 35], the EC50 turned out to be 0.395 µM.

For the compound `COc1ccc(F)cc1OC[C@H]1[C@H](c2ccc(S(N)(=O)=O)cc2)C1(C)C` (single isomer, unassigned) [Exp. 36], the EC50 was 0.164 µM.

For the compound `N#Cc1cc(F)ccc1OC[C@@H]1C[C@H]1c1ccc(S(N)(=O)=O)cc1` (single isomer, unassigned) [Exp. 37], the EC50 worked out at 6 µM.

In the case of `NS(=O)(=O)c1ccc([C@@H]2C[C@H]2COc2ccc(F)cc2C(F)(F)F)cc1` (single isomer, unassigned) [Exp. 38], the EC50 was determined as 1.14 µM.

Take `COc1ccc(OC[C@@H]2C[C@H]2c2ccc(S(N)(=O)=O)cc2)c(OC)n1` (single isomer, unassigned) [Exp. 39]: the EC50 is 5.36 µM.

With `COc1ccc(Cl)cc1OC[C@@H]1C[C@H]1c1ccc(S(N)(=O)=O)cc1` (single isomer, unassigned) [Exp. 40], the 50% effective concentration (EC50) was determined as 1.06 µM.

With `COc1cc(F)ccc1OC[C@@H]1C[C@H]1c1ccc(S(N)(=O)=O)cc1` (single isomer, unassigned) [Exp. 41], the EC50 turned out to be 2.59 µM.

Turning to `CC1(C)[C@H](COc2ccccc2OC(F)F)[C@H]1c1ccc(S(N)(=O)=O)cc1` (single isomer, unassigned) [Exp. 42], the EC50 came to 0.625 µM.

Turning to `COc1ccc(F)cc1OC[C@@H]1[C@@H](c2ccc(S(N)(=O)=O)cc2)C1(C)C` (single isomer, unassigned) [Exp. 43], the EC50 stood at 1.56 µM.

Consider `COc1cc(F)ccc1OC[C@H]1C[C@@H]1c1ccc(S(N)(=O)=O)cc1` (single isomer, unassigned) [Exp. 44], for which the EC50 was found to be 2.94 µM.

On to `N#Cc1cc(F)ccc1OC[C@H]1C[C@@H]1c1ccc(S(N)(=O)=O)cc1` (single isomer, unassigned) [Exp. 45], for which the EC50 was found to be 2.51 µM.

Regarding `NS(=O)(=O)c1ccc([C@H]2C[C@@H]2COc2ccc(F)cc2C(F)(F)F)cc1` (single isomer, unassigned) [Exp. 46], the half-maximal effective concentration (EC50) is 0.701 µM.

As for `COc1ccc(Cl)cc1OC[C@H]1C[C@@H]1c1ccc(S(N)(=O)=O)cc1` (single isomer, unassigned) [Exp. 47], the EC50 turned out to be 3.7 µM.

As for `COc1ccccc1CC[C@@H]1[C@@H](c2ccc(S(N)(=O)=O)cc2)C1(C)C` (single isomer, unassigned) [Exp. 48], the EC50 was 0.612 µM.

Consider `COc1ccc(Cl)cc1CC[C@@H]1[C@@H](c2ccc(S(N)(=O)=O)cc2)C12CCCC2` (single isomer, unassigned) [Exp. 49], for which the 50% effective concentration (EC50) turned out to be 0.064 µM.

As to `COc1ccc(Cl)cc1CC[C@H]1[C@H](c2ccc(S(N)(=O)=O)cc2)C12CCCC2` (single isomer, unassigned) [Exp. 50], the EC50 amounted to 0.19 µM.

For the compound `COc1ccc(Cl)cc1CC[C@H]1C[C@@H]1c1ccc(S(N)(=O)=O)cc1` (single isomer, unassigned) [Exp. 51], the EC50 is 0.626 µM.

As for `COc1ccc(Cl)cc1CC[C@H]1[C@H](c2ccc(S(N)(=O)=O)cc2)C1(C)C` (single isomer, unassigned) [Exp. 52], the concentration giving a half-maximal response (EC50) worked out at 0.054 µM.

On to `COc1ccc(Cl)cc1OC[C@@H]1C[C@@H]1c1ccc(S(N)(=O)=O)cc1` (single isomer, unassigned) [Exp. 53], for which the EC50 is 2.19 µM.

Take `COc1ccc(Cl)cc1CC[C@@H]1[C@@H](c2ccc(S(N)(=O)=O)cc2)C1(C)C` (single isomer, unassigned) [Exp. 54]: the EC50 was found to be 0.124 µM.

On to `CC1(C)[C@H](COc2ccc(Cl)cn2)[C@H]1c1ccc(S(N)(=O)=O)cc1` (single isomer, unassigned) [Exp. 55], for which the EC50 was 1.47 µM.

For the compound `Cc1ncc(OC[C@H]2[C@H](c3ccc(S(N)(=O)=O)cc3)C2(C)C)cn1` (single isomer, unassigned) [Exp. 56], the EC50 was more than 10 µM.

For `CC1(C)[C@@H](COc2cncnc2)[C@@H]1c1ccc(S(N)(=O)=O)cc1` (single isomer, unassigned) [Exp. 57], the concentration for a half-maximal effect (EC50) was more than 10 µM.

As to `N#Cc1cc(F)ccc1OC[C@@H]1C[C@@H]1c1ccc(S(N)(=O)=O)cc1` (single isomer, unassigned) [Exp. 58], the concentration for a half-maximal effect (EC50) is more than 10 µM.
